According to patent publication US9969692B2, “Process for preparing quinoline derivatives” (Exelixis, Inc., priority 2011, dated 2018):

Assay: Gravimetric vapor sorption (GVS) moisture adsorption desorption isotherm
Assay type: physicochemical
Details: 25° C. and 90% humidity
Method: A gravimetric vapor sorption (GVS) study was run using a standard procedure. Samples were run on a dynamic vapor sorption analyzer (Surface Measurement Systems) running DVSCFR software. Sample sizes were typically 10 mg. A moisture adsorption desorption isotherm was performed as outlined below. The standard isotherm experiment, performed at 25° C., is a two-cycle run, starting at 40% RH (relative humidity), increasing humidity to 90% RH, decreasing humidity to 0% RH, increasing humidity again to 90% RH, and finally decreasing humidity to 0% RH in 10% RH intervals.

In the case of `COc1cc2c(Oc3ccc(NC(=O)C4(C(=O)Nc5ccc(F)cc5)CC4)cc3F)ccnc2cc1OCCCN1CCOCC1.O` [crystalline Compound 1, N-[3-fluoro-4-({6-(methyloxy)-7-[(3-morpholin-4-ylpropyl)oxy]quinolin-4-yl}oxy)phenyl]-N′-(4-fluorophenyl)cyclopropane-1,1-dicarboxamide crystalline hydrate], the “weight gain (GVS)” value is reported as 2.5%.
